Tests used:
[1] = system: acaricide resistant citrus red mites; assay: Effect on Citrus Red Mite (spray on mandarin orange leaves); type: in vivo; details: 31 ppm, emulsifiable concentrate of Formulation Example 2 sprayed, 10 female adults, 25° C., 65% humidity
Protocol: Effect on Citrus Red Mite
10 female adults of acaricide resistant citrus red mites were inoculated onto leaves of a mandarin orange placed on dishes, onto which each of liquid agents, diluted with water so as to adjust the respective concentration of the chemical compounds to 31 ppm according to the formulation of the emulsifiable concentrate shown in the aforementioned Formulation Example 2, was sprayed by using a rotating sparge tower. After they were left in a thermostatic chamber at 25° C. in 65% humidity for 3 days, and were then removed from the dishes, eggs laid for 3 days were investigated whether they could grow to adults or not on the eleventh day. As the results, the following chemical compounds killed 100% of the adults. 1-13, 1-15, 1-22, 1-27, 1-45, 1-54, 1-59, 1-63, 1-66, 1-69, 1-71, 1-72, 1-75, 1-80, 1-88, 1-89, 1-92, 1-93, 1-94, 1-97, 1-98, 1-100, 1-102, 1-105, 1-108, 1-133, 1-136, 1-142, 1-153, 1-181, 1-183, 1-186, 1-187, 1-188, 1-189, 1-190, 1-191,

[2] = system: organophosphorous agent resistant two-spotted spider mites; assay: Effect on Two-spotted Spider Mite (spray on kidney bean leaves); type: in vivo; details: 125 ppm, water dispersible powder of Formulation Example 1 sprayed, 17 female adults, 25° C., 65% humidity, 3 days
Summary of the method: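 Kidney bean first leaves bearing 17 adult female organophosphate-resistant mites were sprayed with a water-dispersible powder formulation at 125 ppm. Held 3 days at 25 °C, 65% humidity, then adult mortality scored; run in duplicate.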

| Compound | killed ... of the adults (eggs laid for 3 days investigated whether they could grow to adults on the eleventh day) [1] [%] | rate of killed adults [2] [%] |
| --- | --- | --- |
| CC=CCOc1cc(C(F)(F)F)ccc1OC1C2CCC1CN(c1ccc(C(F)(F)F)cn1)C2 (mixture of isomers) [5-175] | 100 | 100 |
| CCc1cc(Cl)ccc1OC1CCN(c2ccc(C(F)(F)F)cn2)CC1 [1-54] | 100 | 100 |
| COCc1cc(C(F)(F)F)ccc1OC1CCN(c2ccc(C(F)(F)F)cn2)CC1 [1-63] | 100 | 100 |
| CCOCc1cc(C(F)(F)F)ccc1OC1CCN(c2ccc(C(F)(F)F)cn2)CC1 [1-66] | 100 | 100 |
| CCOCOCc1cc(C(F)(F)F)ccc1OC1CCN(c2ccc(C(F)(F)F)cn2)CC1 [1-71] | 100 | 100 |
| COc1cc(C(F)(F)F)ccc1OC1CCN(c2ccc(C(F)(F)F)cn2)CC1 [1-88] | 100 | 100 |
| CCOc1cc(C(F)(F)F)ccc1OC1CCN(c2ccc(C(F)(F)F)cn2)CC1 [1-89] | 100 | 100 |
| CCCOc1cc(C(F)(F)F)ccc1OC1CCN(c2ccc(C(F)(F)F)cn2)CC1 [1-92] | 100 | 100 |
| CCCOc1cc(C(F)(F)F)ccc1OC1CCN(c2ccc(C(F)(F)F)cn2)C(C)C1 (stereo not shown) [1-93, 2-methyl-4-[2-propoxy-4-(trifluoromethyl)phenoxy]-1-[5-(trifluoromethyl)-2-pyridyl]piperidine] | 100 | 100 |
| CCCOc1cc(C(F)(F)F)ccc1OC1CCN(c2ccc(C)cn2)CC1 [1-94] | 100 | 100 |
| CCCOc1cc(C(F)(F)F)ccc1OC1CCN(c2ccc(C(F)(F)F)cn2)CC1C (stereo not shown) [1-98] | 100 | 100 |
| CC(C)Oc1cc(C(F)(F)F)ccc1OC1CCN(c2ccc(C(F)(F)F)cn2)CC1 [1-100] | 100 | 100 |
| CC(C)COc1cc(C(F)(F)F)ccc1OC1CCN(c2ccc(C(F)(F)F)cn2)CC1 [1-102] | 100 | 100 |
| FC(F)(Br)Oc1ccc(OC2CCN(c3ccc(C(F)(F)F)cn3)CC2)cc1 [1-136] | 100 | 100 |
| C=CCOc1cc(C(F)(F)F)ccc1OC1CCN(c2ccc(C(F)(F)F)cn2)CC1 [1-142] | 100 | 100 |
| CCCOc1cc(C(F)(F)F)ccc1OC1CCN(c2ccc(C(F)(F)F)cn2)CC1CC (stereo not shown) [1-186] | 100 | 100 |
| COC(C)OCc1cc(C(F)(F)F)ccc1OC1CCN(c2ccc(C(F)(F)F)cn2)CC1C (stereo not shown) [1-188] | 100 | 100 |
| CCCOc1cc(C(F)(F)F)ccc1OC1CCN(c2ccc(C(F)(F)F)cn2)CC1CCC (stereo not shown) [1-191] | 100 | 100 |
| CCCS(=O)(=O)Oc1cc(C(F)(F)F)ccc1OC1C2CCC1CN(c1ccc(C(F)(F)F)cn1)C2 (stereo not shown) [5-163] | – | 100 |
| CC(C)S(=O)(=O)Oc1cc(C(F)(F)F)ccc1OC1C2CCC1CN(c1ccc(C(F)(F)F)cn1)C2 (stereo not shown) [5-164] | – | 100 |
| C=CCCOc1cc(C(F)(F)F)ccc1OC1C2CCC1CN(c1ccc(C(F)(F)F)cn1)C2 (stereo not shown) [5-176] | – | 100 |
| CC(COc1cc(C(F)(F)F)ccc1OC1C2CCC1CN(c1ccc(C(F)(F)F)cn1)C2)=NO (stereo not shown) [5-182] | – | 100 |
| CC(COc1cc(C(F)(F)F)ccc1OC1C2CCC1CN(c1ccc(C(F)(F)F)cn1)C2)=NO (stereo not shown) [5-183] | – | 100 |
| CON=C(C)COc1cc(C(F)(F)F)ccc1OC1C2CCC1CN(c1ccc(C(F)(F)F)cn1)C2 (stereo not shown) [5-184] | – | 100 |
| CCCN(C)c1cc(C(F)(F)F)ccc1OC1C2CCC1CN(c1ccc(C(F)(F)F)cn1)C2 (stereo not shown) [5-191] | – | 100 |
| CCC(=O)Oc1cc(C(F)(F)F)ccc1OC1C2CCC1CN(c1ccc(C(F)(F)F)cn1)C2 (stereo not shown) [5-198] | – | 100 |
| CCCC(=O)Oc1cc(C(F)(F)F)ccc1OC1C2CCC1CN(c1ccc(C(F)(F)F)cn1)C2 (stereo not shown) [5-199] | – | 100 |
| CC(C)(C)C(=O)Oc1cc(C(F)(F)F)ccc1OC1C2CCC1CN(c1ccc(C(F)(F)F)cn1)C2 (stereo not shown) [5-200] | – | 100 |

| Compound | killed ... of the adults (eggs laid for 3 days investigated whether they could grow to adults on the eleventh day) [1] [%] | rate of killed adults [2] [%] |
| --- | --- | --- |
| FC(F)(F)c1ccc(N2CC3CCC(C2)C3Oc2ccc(C(F)(F)F)cc2OCC2CCCO2)nc1 (stereo not shown) [5-204] | – | 100 |
| FC(F)(F)c1ccc(N2CC3CCC(C2)C3Oc2ccc(C(F)(F)F)cc2OCC2CCOC2)nc1 (stereo not shown) [5-205] | – | 100 |
| FC(F)(F)c1ccc(N2CC3CCC(C2)C3Oc2ccc(C(F)(F)F)cc2OCc2ccco2)nc1 (stereo not shown) [5-206] | – | 100 |
| FC(F)(F)c1ccc(N2CC3CCC(C2)C3Oc2ccc(C(F)(F)F)cc2OCc2ccoc2)nc1 (stereo not shown) [5-207] | – | 100 |
| FC(F)(F)c1ccc(N2CC3CCC(C2)C3Oc2ccc(C(F)(F)F)cc2OCc2ccsc2)nc1 (stereo not shown) [5-208] | – | 100 |
| FC(F)(F)c1ccc(N2CC3CCC(C2)C3Oc2ccc(C(F)(F)F)cc2OCc2cccs2)nc1 (stereo not shown) [5-209] | – | 100 |
| Cc1ccc(N2CC3CCC(C2)C3Oc2ccc(C(F)(F)F)cc2OC2CC2(Cl)Cl)nc1 (stereo not shown) [5-210] | – | 100 |
| FC(F)(F)c1ccc(N2CC3CCC(C2)C3Oc2ccc(C(F)(F)F)cc2OCc2cccnc2)nc1 (stereo not shown) [5-211] | – | 100 |
| FC(F)(F)c1ccc(N2CC3CCC(C2)C3Oc2ccc(C(F)(F)F)cc2OCc2ccccn2)nc1 (stereo not shown) [5-212] | – | 100 |
| FC(F)(F)c1ccc(N2CC3CCC(C2)C3Oc2ccc(C(F)(F)F)cc2OCC2CCO2)nc1 (stereo not shown) [5-213] | – | 100 |
| FC(F)(F)c1ccc(N2CC3CCC(C2)C3Oc2ccc(C(F)(F)F)cc2OCC2CCCO2)nc1 (stereo not shown) [5-214] | – | 100 |
| CCCCOCc1cc(C(F)(F)F)ccc1OC1C2CCC1CN(c1ccc(C(F)(F)F)cn1)C2 (stereo not shown) [5-223] | – | 100 |
| FC(F)(F)c1ccc(N2CC3CCC(C2)C3Oc2ccc(C(F)(F)F)cc2COC2CCOC2)nc1 (stereo not shown) [5-231] | – | 100 |
| CC#CCOc1cc(C(F)(F)F)ccc1OC1C2CCC1CN(c1ccc(C(F)(F)F)cn1)C2 (stereo not shown) [5-232] | – | 100 |
| FC(F)(F)c1ccc(N2CC3CCC(C2)C3Oc2ccc(C(F)(F)F)cc2C2CC=CO2)nc1 (stereo not shown) [5-235] | – | 100 |
| CCCCC(O)c1cc(C(F)(F)F)ccc1OC1C2CCC1CN(c1ccc(C(F)(F)F)cn1)C2 (stereo not shown) [5-238] | – | 100 |
| CCCC(=O)c1cc(C(F)(F)F)ccc1OC1C2CCC1CN(c1ccc(C(F)(F)F)cn1)C2 (stereo not shown) [5-240] | – | 100 |
| CCC(C)OCc1cc(C(F)(F)F)ccc1O[C@@H]1[C@@H]2CC[C@H]1CN(c1ccc(C(F)(F)F)cn1)C2 (stereo partly shown) [5-242] | – | 100 |
| CCCOC(=O)c1cc(C(F)(F)F)ccc1O[C@@H]1[C@@H]2CC[C@H]1CN(c1ccc(C(F)(F)F)cn1)C2 [5-244] | – | 100 |
| COCCc1cc(C(F)(F)F)ccc1O[C@@H]1[C@@H]2CC[C@H]1CN(c1ccc(C(F)(F)F)cn1)C2 [5-246] | – | 100 |
| COC=Cc1cc(C(F)(F)F)ccc1O[C@@H]1[C@@H]2CC[C@H]1CN(c1ccc(C(F)(F)F)cn1)C2 [5-247] | – | 100 |
| CCN(C)C(=O)c1cc(C(F)(F)F)ccc1O[C@@H]1[C@@H]2CC[C@H]1CN(c1ccc(C(F)(F)F)cn1)C2 [5-249] | – | 100 |
| CC(C)(C)CC(O)c1cc(C(F)(F)F)ccc1O[C@@H]1[C@@H]2CC[C@H]1CN(c1ccc(C(F)(F)F)cn1)C2 (stereo partly shown) [5-255] | – | 100 |
| CC(=O)OC(CC(C)C)c1cc(C(F)(F)F)ccc1O[C@@H]1[C@@H]2CC[C@H]1CN(c1ccc(C(F)(F)F)cn1)C2 (stereo partly shown) [5-258] | – | 100 |
| CCC1COC(c2cc(C(F)(F)F)ccc2O[C@@H]2[C@@H]3CC[C@H]2CN(c2ccc(C(F)(F)F)cn2)C3)N1 (stereo partly shown) [5-263] | – | 100 |
| FC(F)(F)c1ccc(O[C@@H]2[C@@H]3CC[C@H]2CN(c2ccc(C(F)(F)F)cn2)C3)cc1 [5-264] | – | 100 |
| FC(F)(F)c1ccc(OC2CCN(c3ccc(C(F)(F)F)cn3)C2)cc1 (stereo not shown) [8-63, 3-[4-(trifluoromethyl)phenoxy]-1-[5-(trifluoromethyl)-2-pyridy]pyrrolidine] | – | 100 |
